What is called pEC50 is the negative decadic logarithm of the EC50, by convention in mol/L.

This note sets out measurements from patent US12139520B2 (priority 2020, dated 2024).

A short description of data set [1]: Physical stability of peptide analogues (Thioflavin T fibrillation). Format: physicochemical. The note with it: maximum ThT signal normalized between hAMY maximum and buffer background; 40° C., shaking, four days; pH 7 per table title. The essentials:
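ThT fluorescence (450 nm excitation, 480 nm emission; 4 μM dye) was read every 10 min over four days at 40° C under 700 rpm shaking stress, after 1 h in pH 4 acetate or pH 7 phosphate (50 mM). Peak smoothed signal expressed as percent, scaled between buffer background and hAMY maximum.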

The target of the next data set is T1, hAMY3 receptor (Homo sapiens, UniProt O60896+P30988).
T1 sequence (P30988 25-474): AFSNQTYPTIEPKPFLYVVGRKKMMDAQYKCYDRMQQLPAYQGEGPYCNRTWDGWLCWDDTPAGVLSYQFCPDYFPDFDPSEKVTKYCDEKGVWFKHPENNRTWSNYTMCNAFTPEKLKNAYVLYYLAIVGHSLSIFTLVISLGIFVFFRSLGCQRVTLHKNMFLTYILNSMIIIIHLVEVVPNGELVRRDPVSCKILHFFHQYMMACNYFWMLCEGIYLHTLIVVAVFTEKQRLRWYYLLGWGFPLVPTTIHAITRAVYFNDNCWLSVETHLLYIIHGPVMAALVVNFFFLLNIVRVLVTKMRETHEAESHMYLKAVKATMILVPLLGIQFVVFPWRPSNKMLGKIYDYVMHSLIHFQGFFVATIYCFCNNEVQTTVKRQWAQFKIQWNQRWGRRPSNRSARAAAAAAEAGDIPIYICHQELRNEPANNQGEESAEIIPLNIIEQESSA
T1 sequence (O60896 24-148 partner): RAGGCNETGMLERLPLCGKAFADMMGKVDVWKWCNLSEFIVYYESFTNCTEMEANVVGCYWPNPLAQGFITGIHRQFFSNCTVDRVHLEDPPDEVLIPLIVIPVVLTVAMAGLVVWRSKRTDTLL
Put plainly: cAMP assay for in vitro receptor activation, hAMY3-R. Type of data set: cell-based. The note with it: cAMP assay, hAMY3 receptor; read-out: hAMY3R EC50. The essentials: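 Monoclonal cell line stably overexpressing hAMY3 receptor, plated in DPBS with 0.05% casein and 0.5 mM IBMX, was stimulated with graded compound doses for 30 min at room temperature. cAMP accumulation was read by time-resolved FRET one hour after adding detection reagents.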

The structures appear in SMILES notation. pEC50: −log10 of the molar value. Bridge positions count the residues as written; N and C are the ends. Square brackets hold non-standard residues; d marks the D form. Peptide text beside a SMILES is read from it. Hyp = O=C(O)[C@@H]1C[C@@H](O)CN1; Cit = NC(=O)NCCC[C@H](N)C(=O)O

Regarding `CC[C@H](C)[C@H](NC(=O)[C@H](CCC(N)=O)NC(=O)[C@H](Cc1c[nH]cn1)NC(=O)[C@H](C)NC(=O)[C@H](CC(C)C)NC(=O)[C@H](CCCNC(=N)N)NC(=O)[C@H](CCC(N)=O)NC(=O)[C@@H](NC(=O)[C@@H](NC(=O)[C@@H]1CSSC[C@H](NC(=O)CN)C(=O)N[C@@H](CCCNC(=N)N)C(=O)N[C@@H]([C@@H](C)O)C(=O)NCC(=O)N[C@@H]([C@@H](C)O)C(=O)N1)[C@@H](C)O)C(C)C)C(=O)N[C@@H](Cc1ccc(O)cc1)C(=O)N[C@@H](CCC(N)=O)C(=O)N[C@@H](Cc1ccccc1)C(=O)N[C@H](C(=O)N[C@@H](CC(=O)O)C(=O)N[C@@H](CCCCN)C(=O)N[C@@H](CC(=O)O)C(=O)N[C@@H](CCCCN)C(=O)N[C@@H](CC(=O)O)C(=O)N[C@@H](CC(N)=O)C(=O)N[C@H](C(=O)N[C@@H](C)C(=O)N1CCC[C@H]1C(=O)N[C@@H](CCCNC(=N)N)C(=O)N[C@@H](CO)C(=O)N[C@@H](CC(N)=O)C(=O)N[C@H](C(=O)N[C@@H](CO)C(=O)N1CCC[C@H]1C(=O)N[C@@H](CCC(N)=O)C(=O)NCC(=O)N1C[C@H](O)C[C@H]1C(N)=O)C(C)C)C(C)C)[C@@H](C)O` [compound 224] (H-GCRTGTCTVQRLAHQIYQFTDKDKDNVAPRSNVSPQG[Hyp]-NH2; disulfide 2-7; N-terminus assumed), the “Max ThT signal (%)” value in data set [1] came out at 2.000%. In addition, at hAMY3 receptor, the negative-log EC50 (pEC50) was 9.73.
Consider `CC[C@H](C)[C@H](NC(=O)[C@H](CCC(N)=O)NC(=O)[C@H](C)NC(=O)[C@H](C)NC(=O)[C@H](CC(C)C)NC(=O)[C@H](CCCNC(N)=O)NC(=O)[C@H](CCC(N)=O)NC(=O)[C@@H](NC(=O)[C@@H](NC(=O)[C@@H]1CSSC[C@H](NC(=O)[C@@H](N)CCCCN)C(=O)N[C@@H](CC(N)=O)C(=O)N[C@@H]([C@@H](C)O)C(=O)N[C@@H](C)C(=O)N[C@@H]([C@@H](C)O)C(=O)N1)[C@@H](C)O)C(C)C)C(=O)N[C@@H](Cc1ccc(O)cc1)C(=O)N[C@@H](CCC(N)=O)C(=O)N[C@@H](Cc1ccccc1)C(=O)N[C@H](C(=O)N[C@@H](CC(=O)O)C(=O)N[C@@H](CCCCN)C(=O)N[C@@H](CC(=O)O)C(=O)N[C@@H](CCCCN)C(=O)N[C@@H](CC(=O)O)C(=O)N[C@@H](CC(N)=O)C(=O)N[C@H](C(=O)N[C@@H](C)C(=O)N1CCC[C@H]1C(=O)N1CCC[C@H]1C(=O)N[C@H](C(=O)N[C@@H](CC(N)=O)C(=O)N[C@H](C(=O)NCC(=O)N[C@@H](CO)C(=O)N[C@@H](CC(N)=O)C(=O)NCC(=O)N1C[C@H](O)C[C@H]1C(N)=O)C(C)C)[C@@H](C)O)C(C)C)[C@@H](C)O` [compound 243] (H-KCNTATCTVQ[Cit]LAAQIYQFTDKDKDNVAPPTNVGSNG[Hyp]-NH2; disulfide 2-7; N-terminus assumed), for which, in data set [1], the “Max ThT signal (%)” value was 8.550%. Also, the pEC50 on hAMY3 receptor was 10.74.
Consider `CC[C@H](C)[C@H](NC(=O)[C@H](CCC(N)=O)NC(=O)[C@H](Cc1c[nH]cn1)NC(=O)[C@H](C)NC(=O)[C@H](CC(C)C)NC(=O)[C@H](CCCNC(N)=O)NC(=O)[C@H](CCC(N)=O)NC(=O)[C@@H](NC(=O)[C@@H](NC(=O)[C@@H]1CSSC[C@H](NC(=O)[C@@H](N)CCCCN)C(=O)N[C@@H](CC(N)=O)C(=O)N[C@@H]([C@@H](C)O)C(=O)N[C@@H](C)C(=O)N[C@@H]([C@@H](C)O)C(=O)N1)[C@@H](C)O)C(C)C)C(=O)N[C@@H](Cc1ccc(O)cc1)C(=O)N[C@@H](CCC(N)=O)C(=O)N[C@@H](Cc1ccccc1)C(=O)N[C@H](C(=O)N[C@@H](CC(=O)O)C(=O)N[C@@H](CCCCN)C(=O)N[C@@H](CC(=O)O)C(=O)N[C@@H](CCCCN)C(=O)N[C@@H](CC(=O)O)C(=O)N[C@@H](CC(N)=O)C(=O)N[C@H](C(=O)N[C@@H](C)C(=O)N1CCC[C@H]1C(=O)N[C@@H](CCCNC(=N)N)C(=O)N[C@H](C(=O)N[C@@H](CCCCN)C(=O)N[C@H](C(=O)NCC(=O)N[C@@H](CO)C(=O)N[C@@H](CC(N)=O)C(=O)NCC(=O)N1C[C@H](O)C[C@H]1C(N)=O)C(C)C)[C@@H](C)O)C(C)C)[C@@H](C)O` [compound 248] (H-KCNTATCTVQ[Cit]LAHQIYQFTDKDKDNVAPRTKVGSNG[Hyp]-NH2; disulfide 2-7; N-terminus assumed), for which the “Max ThT signal (%)” value in data set [1] was 13.600%. In addition, the pEC50 on hAMY3 receptor was 10.57.
Take `CC[C@H](C)[C@H](NC(=O)[C@H](CCC(N)=O)NC(=O)[C@H](Cc1c[nH]cn1)NC(=O)[C@H](C)NC(=O)[C@H](CC(C)C)NC(=O)[C@H](CCCNC(N)=O)NC(=O)[C@H](CCC(N)=O)NC(=O)[C@@H](NC(=O)[C@@H](NC(=O)[C@@H]1CSSC[C@H](NC(=O)[C@@H](N)CCCCN)C(=O)N[C@@H](CC(N)=O)C(=O)N[C@@H]([C@@H](C)O)C(=O)N[C@@H](C)C(=O)N[C@@H]([C@@H](C)O)C(=O)N1)[C@@H](C)O)C(C)C)C(=O)N[C@@H](Cc1ccc(O)cc1)C(=O)N[C@@H](CCC(N)=O)C(=O)N[C@@H](Cc1ccccc1)C(=O)N[C@H](C(=O)N[C@@H](CC(=O)O)C(=O)N[C@@H](CCCCN)C(=O)N[C@@H](CC(=O)O)C(=O)N[C@@H](CCCCN)C(=O)N[C@@H](CC(=O)O)C(=O)N[C@@H](CC(N)=O)C(=O)N[C@H](C(=O)N[C@@H](C)C(=O)N1CCC[C@H]1C(=O)N[C@@H](CCCNC(=N)N)C(=O)N[C@H](C(=O)N[C@@H](CCCCN)C(=O)N[C@H](C(=O)NCC(=O)N[C@@H](CO)C(=O)N[C@@H](CC(N)=O)C(=O)NCC(=O)N[C@@H](Cc1ccc(O)cc1)C(N)=O)C(C)C)[C@@H](C)O)C(C)C)[C@@H](C)O` [compound 257] (H-KCNTATCTVQ[Cit]LAHQIYQFTDKDKDNVAPRTKVGSNGY-NH2; disulfide 2-7; N-terminus assumed): in data set [1], the “Max ThT signal (%)” value is given as 20.950%. Further, at hAMY3 receptor, the pEC50 was 10.80.
As to `CC[C@H](C)[C@H](NC(=O)[C@H](CCC(N)=O)NC(=O)[C@H](Cc1c[nH]cn1)NC(=O)[C@H](C)NC(=O)[C@H](CC(C)C)NC(=O)[C@H](CCCNC(N)=O)NC(=O)[C@H](CCC(N)=O)NC(=O)[C@@H](NC(=O)[C@@H](NC(=O)[C@@H]1CSSC[C@H](NC(=O)CN)C(=O)N[C@@H](CCCNC(=N)N)C(=O)N[C@@H](Cc2ccccc2)C(=O)NCC(=O)N[C@@H]([C@@H](C)O)C(=O)N1)[C@@H](C)O)C(C)C)C(=O)N[C@@H](Cc1ccc(O)cc1)C(=O)N[C@@H](CCC(N)=O)C(=O)N[C@@H](Cc1ccccc1)C(=O)N[C@H](C(=O)N[C@@H](CC(=O)O)C(=O)N[C@@H](CCCCN)C(=O)N[C@@H](CC(=O)O)C(=O)N[C@@H](CCCCN)C(=O)N[C@@H](CC(=O)O)C(=O)N[C@@H](CC(N)=O)C(=O)N[C@H](C(=O)N[C@@H](C)C(=O)N1CCC[C@H]1C(=O)N[C@@H](CCCNC(=N)N)C(=O)N[C@H](C(=O)N[C@@H](CCCCN)C(=O)N[C@H](C(=O)NCC(=O)N1CCC[C@H]1C(=O)N[C@@H](CCC(N)=O)C(=O)NCC(=O)N1C[C@H](O)C[C@H]1C(N)=O)C(C)C)[C@@H](C)O)C(C)C)[C@@H](C)O` [compound 259] (H-GCRFGTCTVQ[Cit]LAHQIYQFTDKDKDNVAPRTKVGPQG[Hyp]-NH2; disulfide 2-7), in data set [1], the “Max ThT signal (%)” value amounted to 13.450%. In addition, the pEC50 on hAMY3 receptor was 10.89.
In the same order, the values of `CC[C@H](C)[C@H](NC(=O)[C@H](CC(N)=O)NC(=O)[C@@H](NC(=O)[C@H](CCCNC(=N)N)NC(=O)[C@@H]1CCCN1C(=O)[C@H](C)NC(=O)[C@@H](NC(=O)[C@H](CC(N)=O)NC(=O)[C@H](CC(=O)O)NC(=O)[C@H](CCCCN)NC(=O)[C@H](CC(=O)O)NC(=O)[C@H](CCCCN)NC(=O)[C@H](CC(=O)O)NC(=O)[C@@H](NC(=O)[C@H](Cc1ccccc1)NC(=O)[C@H](CCC(N)=O)NC(=O)[C@H](Cc1ccc(O)cc1)NC(=O)[C@@H](NC(=O)[C@H](CCC(N)=O)NC(=O)[C@H](Cc1c[nH]cn1)NC(=O)[C@H](C)NC(=O)[C@H](CC(C)C)NC(=O)[C@H](CCCNC(N)=O)NC(=O)[C@H](CCC(N)=O)NC(=O)[C@@H](NC(=O)[C@@H](NC(=O)[C@@H]1CSSC[C@H](NC(=O)CN)C(=O)N[C@@H](CCCNC(=N)N)C(=O)N[C@@H](Cc2ccccc2)C(=O)NCC(=O)N[C@@H]([C@@H](C)O)C(=O)N1)[C@@H](C)O)C(C)C)[C@@H](C)CC)[C@@H](C)O)C(C)C)[C@@H](C)O)C(=O)NCC(=O)N1CCC[C@H]1C(=O)N[C@@H](CCC(N)=O)C(=O)NCC(=O)N1C[C@H](O)C[C@H]1C(N)=O` [compound 260] (H-GCRFGTCTVQ[Cit]LAHQIYQFTDKDKDNVAPRTNIGPQG[Hyp]-NH2; disulfide 2-7; N-terminus assumed) are 34.100% and 10.96.
